Experimental data from ChEMBL document CHEMBL1201862, “PubChem BioAssay data set” (2004).
Activity calls are given as the source filed them.

Key:
[1] = target: T1, Leucine aminopeptidase (Plasmodium falciparum 3D7, UniProt Q8IL11); assay: P. falciparum M17LAP inhibitors, primary screen, biochemical, fluorogenic H-Leu-NHMec substrate, 1536-well (AID 1619); assay type: functional
T1 sequence (Q8IL11 whole entry): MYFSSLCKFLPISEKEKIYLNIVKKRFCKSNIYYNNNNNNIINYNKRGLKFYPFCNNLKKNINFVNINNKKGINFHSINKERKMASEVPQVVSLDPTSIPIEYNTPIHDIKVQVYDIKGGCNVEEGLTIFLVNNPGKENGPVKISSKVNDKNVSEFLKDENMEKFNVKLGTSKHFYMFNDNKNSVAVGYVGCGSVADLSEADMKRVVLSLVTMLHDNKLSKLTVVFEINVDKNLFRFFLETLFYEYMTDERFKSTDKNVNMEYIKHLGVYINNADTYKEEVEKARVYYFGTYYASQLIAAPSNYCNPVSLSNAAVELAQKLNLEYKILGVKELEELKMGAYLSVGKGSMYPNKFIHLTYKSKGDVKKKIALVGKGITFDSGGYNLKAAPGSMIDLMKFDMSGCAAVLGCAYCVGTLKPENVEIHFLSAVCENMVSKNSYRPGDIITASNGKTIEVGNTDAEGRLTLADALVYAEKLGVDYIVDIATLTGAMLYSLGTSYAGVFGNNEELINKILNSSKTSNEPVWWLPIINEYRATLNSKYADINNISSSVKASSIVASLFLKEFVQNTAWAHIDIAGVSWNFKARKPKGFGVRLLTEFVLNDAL

[2] = target: T2, Replicative DNA helicase DnaB (Mycobacterium tuberculosis, UniProt P9WMR3); assay: DnaB intein splicing inhibitors, dose response, biochemical, cell-free fluorescence (AID 449749); assay type: functional
T2 sequence (P9WMR3 whole entry): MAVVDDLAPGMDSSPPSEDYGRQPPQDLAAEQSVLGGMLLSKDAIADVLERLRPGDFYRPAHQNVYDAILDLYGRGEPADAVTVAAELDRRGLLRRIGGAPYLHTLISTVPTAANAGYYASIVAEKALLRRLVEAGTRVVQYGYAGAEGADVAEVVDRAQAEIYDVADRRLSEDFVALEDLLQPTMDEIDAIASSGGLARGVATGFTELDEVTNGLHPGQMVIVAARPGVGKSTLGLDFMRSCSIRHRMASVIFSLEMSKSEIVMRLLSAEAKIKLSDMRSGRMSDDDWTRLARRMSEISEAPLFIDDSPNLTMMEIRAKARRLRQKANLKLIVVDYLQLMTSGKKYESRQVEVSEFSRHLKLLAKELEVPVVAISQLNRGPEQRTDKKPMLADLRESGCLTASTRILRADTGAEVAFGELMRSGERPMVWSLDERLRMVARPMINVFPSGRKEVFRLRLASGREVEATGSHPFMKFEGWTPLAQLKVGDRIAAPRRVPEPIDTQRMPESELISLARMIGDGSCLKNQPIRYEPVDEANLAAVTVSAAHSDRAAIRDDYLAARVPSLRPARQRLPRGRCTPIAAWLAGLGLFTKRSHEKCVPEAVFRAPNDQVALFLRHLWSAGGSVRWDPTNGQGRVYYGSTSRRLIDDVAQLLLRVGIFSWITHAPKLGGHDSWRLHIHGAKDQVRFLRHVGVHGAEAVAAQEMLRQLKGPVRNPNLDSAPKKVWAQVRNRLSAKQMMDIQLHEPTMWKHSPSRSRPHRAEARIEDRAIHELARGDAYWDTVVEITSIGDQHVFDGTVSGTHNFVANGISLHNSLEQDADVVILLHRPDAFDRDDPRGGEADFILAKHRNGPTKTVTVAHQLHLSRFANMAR

[3] = target: T3, Protein RecA (Mycobacterium tuberculosis, UniProt P9WHJ3); assay: Fluorescence Cell-Free Homogeneous Dose Retest to Identify Inhibitors of RecA-Intein Splicing Activity. [Related pubchem assays (depositor defined):AID2097, AID2223, AID489010, AID492950]; assay type: functional
T3 sequence (P9WHJ3 whole entry): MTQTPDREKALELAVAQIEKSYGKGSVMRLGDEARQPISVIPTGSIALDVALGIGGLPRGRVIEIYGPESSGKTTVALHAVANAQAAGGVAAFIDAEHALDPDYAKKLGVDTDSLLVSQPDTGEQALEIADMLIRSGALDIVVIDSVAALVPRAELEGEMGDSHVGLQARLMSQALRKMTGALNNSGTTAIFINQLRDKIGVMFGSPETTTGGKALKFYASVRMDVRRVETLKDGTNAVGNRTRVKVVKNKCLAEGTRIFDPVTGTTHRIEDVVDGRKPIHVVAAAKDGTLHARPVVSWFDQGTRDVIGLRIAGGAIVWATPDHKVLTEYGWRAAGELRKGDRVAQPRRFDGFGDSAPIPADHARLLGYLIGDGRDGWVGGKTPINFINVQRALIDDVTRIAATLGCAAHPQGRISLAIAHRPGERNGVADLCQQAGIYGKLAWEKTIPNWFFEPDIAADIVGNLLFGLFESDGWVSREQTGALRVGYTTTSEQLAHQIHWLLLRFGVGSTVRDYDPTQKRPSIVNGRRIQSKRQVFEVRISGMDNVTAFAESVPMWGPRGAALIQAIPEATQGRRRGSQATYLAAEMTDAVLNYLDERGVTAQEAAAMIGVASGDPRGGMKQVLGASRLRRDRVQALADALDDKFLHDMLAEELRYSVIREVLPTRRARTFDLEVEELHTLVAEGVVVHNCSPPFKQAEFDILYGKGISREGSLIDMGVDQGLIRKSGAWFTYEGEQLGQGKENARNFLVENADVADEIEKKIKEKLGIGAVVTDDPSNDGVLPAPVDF

[4] = system: HeLa; assay: ATP-based viability loss in HeLa cells – cell-based, CellTiter-Glo luminescence, cherry-pick samples, cytotoxicity control for MITF activator project, dose response (AID 540259); assay type: functional; details: Homo sapiens
[5] = THP-1 cell cytotoxicity, dose response, cytotoxicity control for non-replicating M. tuberculosis project (AID 489025); assay type: functional
[6] = Vero E6 cell cytotoxicity, dose response, cytotoxicity control for non-replicating M. tuberculosis project, secondary assay (AID 492998); assay type: functional, VeroE6; details: Vero C1008
[7] = cells; assay type: functional
[8] = target: T4, Cytochrome P450 3A4 (Homo sapiens, UniProt P08684);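 also: CYP3A4 tested as one member of a cytochrome P450 panel screen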
T4 sequence (P08684 whole entry): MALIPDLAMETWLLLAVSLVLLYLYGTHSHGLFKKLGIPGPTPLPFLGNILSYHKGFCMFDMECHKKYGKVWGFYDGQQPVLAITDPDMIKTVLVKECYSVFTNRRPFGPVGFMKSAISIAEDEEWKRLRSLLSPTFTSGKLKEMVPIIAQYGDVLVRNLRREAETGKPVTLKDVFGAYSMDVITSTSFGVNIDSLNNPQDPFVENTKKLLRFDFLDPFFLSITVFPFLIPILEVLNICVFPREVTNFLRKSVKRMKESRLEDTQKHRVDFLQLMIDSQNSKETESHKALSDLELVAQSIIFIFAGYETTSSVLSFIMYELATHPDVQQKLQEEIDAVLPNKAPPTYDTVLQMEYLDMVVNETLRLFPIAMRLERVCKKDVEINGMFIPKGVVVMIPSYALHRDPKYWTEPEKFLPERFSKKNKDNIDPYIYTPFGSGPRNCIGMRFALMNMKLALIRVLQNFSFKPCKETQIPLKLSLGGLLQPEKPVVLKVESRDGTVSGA

[9] = target: Cytochrome P450 2C9 (Homo sapiens, UniProt P11712)
Cytochrome P450 2C9, sequence (P11712 whole entry): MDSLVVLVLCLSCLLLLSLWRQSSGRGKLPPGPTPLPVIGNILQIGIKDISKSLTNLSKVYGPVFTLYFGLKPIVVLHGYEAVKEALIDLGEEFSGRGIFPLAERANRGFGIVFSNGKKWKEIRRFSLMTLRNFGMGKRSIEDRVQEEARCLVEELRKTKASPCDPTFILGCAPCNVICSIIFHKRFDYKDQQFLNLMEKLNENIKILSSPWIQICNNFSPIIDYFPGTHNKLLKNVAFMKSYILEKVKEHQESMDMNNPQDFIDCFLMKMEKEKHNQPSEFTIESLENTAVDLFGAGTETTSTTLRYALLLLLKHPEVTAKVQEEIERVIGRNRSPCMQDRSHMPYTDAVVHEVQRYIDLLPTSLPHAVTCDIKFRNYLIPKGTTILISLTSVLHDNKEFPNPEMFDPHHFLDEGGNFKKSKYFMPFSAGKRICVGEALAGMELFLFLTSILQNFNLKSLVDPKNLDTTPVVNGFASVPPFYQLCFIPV

[10] = target: Cytochrome P450 2C19 (Homo sapiens, UniProt P33261); assay: Cytochrome panel assay with activity outcomes. Panel member name: p450-cyp2c19 Compounds with AC50 equal or less than 10 uM are considered active; assay type: functional; details: read-out: AC50
Cytochrome P450 2C19, sequence (P33261 whole entry): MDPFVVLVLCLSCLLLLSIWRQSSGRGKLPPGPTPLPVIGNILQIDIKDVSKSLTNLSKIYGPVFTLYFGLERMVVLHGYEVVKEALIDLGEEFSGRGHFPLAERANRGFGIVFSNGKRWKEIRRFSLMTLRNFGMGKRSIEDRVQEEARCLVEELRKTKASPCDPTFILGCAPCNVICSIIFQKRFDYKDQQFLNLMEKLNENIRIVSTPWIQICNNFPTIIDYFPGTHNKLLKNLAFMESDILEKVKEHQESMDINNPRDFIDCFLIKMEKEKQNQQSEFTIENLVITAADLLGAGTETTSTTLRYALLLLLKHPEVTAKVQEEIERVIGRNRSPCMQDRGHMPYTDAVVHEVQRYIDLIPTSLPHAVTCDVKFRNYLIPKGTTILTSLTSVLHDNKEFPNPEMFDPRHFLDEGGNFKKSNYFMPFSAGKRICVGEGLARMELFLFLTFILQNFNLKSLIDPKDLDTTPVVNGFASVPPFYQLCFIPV

[11] = system: Streptococcus sp. 'group A'; assay: Streptococcus pyogenes SK(-)GAS viability under kanamycin – luminescence, BacTiterGlo, confirmation, counter-screen for streptokinase expression inhibitor project, dose response (AID 1900); assay type: functional, organism-based
[12] = target: T5, Streptokinase A (Streptococcus pyogenes serotype M1, UniProt P10520); assay: viability-normalized secreted streptokinase activity reduction – plasminogen activation absorbance, OD405, dose response (AID 1914); assay type: functional, Streptococcus pyogenes M1 GAS;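 also: secreted streptokinase activity via plasminogen activation per viability signal from cell pellet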
T5 sequence (P10520 whole entry): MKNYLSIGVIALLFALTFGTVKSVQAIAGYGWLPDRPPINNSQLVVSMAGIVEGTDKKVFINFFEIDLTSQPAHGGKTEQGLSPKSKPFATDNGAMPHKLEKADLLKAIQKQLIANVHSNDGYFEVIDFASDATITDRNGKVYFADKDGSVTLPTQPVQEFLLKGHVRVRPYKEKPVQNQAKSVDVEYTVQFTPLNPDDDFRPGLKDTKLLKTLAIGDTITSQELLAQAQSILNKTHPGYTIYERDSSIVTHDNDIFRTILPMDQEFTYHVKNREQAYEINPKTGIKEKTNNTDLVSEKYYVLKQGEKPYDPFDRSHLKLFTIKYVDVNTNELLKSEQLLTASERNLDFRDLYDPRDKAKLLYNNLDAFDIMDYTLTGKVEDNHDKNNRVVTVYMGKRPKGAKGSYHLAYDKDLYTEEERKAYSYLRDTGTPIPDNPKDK

[13] = system: Streptococcus; assay: GAS UMAA2166 growth inhibition – luminescence, BacTiterGlo, counter-screen for streptokinase expression inhibitor project, dose response (AID 1915); assay type: functional, organism-based;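 also: potency for reduction of bacterial viability or growth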
[14] = system: H4; assay: Luminescence Cell-Based Dose Response HTS to Identify Activators of 5'UTR Stem-Loop Driven Prion Protein mRNA Translation in H4 Neuroglioblastoma Cells. [Related pubchem assays: 1829 (Project Summary), 1814 (Primary HTS)]; assay type: functional; details: Homo sapiens
[15] = microbe, parasite or virus in culture; assay type: functional; details: Mycobacterium tuberculosis
[16] = target: Nonstructural protein 1 (Influenza A virus, UniProt Q194T2); assay type: functional, Influenza A virus (A/California/07/2009(H1N1))
Nonstructural protein 1, sequence (Q194T2 whole entry): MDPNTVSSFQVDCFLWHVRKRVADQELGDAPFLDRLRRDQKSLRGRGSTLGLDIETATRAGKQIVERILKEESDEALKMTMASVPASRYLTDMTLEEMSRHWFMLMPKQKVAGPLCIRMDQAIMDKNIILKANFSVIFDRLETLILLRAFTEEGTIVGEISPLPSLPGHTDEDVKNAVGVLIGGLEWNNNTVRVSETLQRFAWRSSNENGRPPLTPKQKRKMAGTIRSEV

[17] = system: H9c2; assay: cells; assay type: functional, cell-based; details: Rattus norvegicus, H9c2, Myocardium;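 also: confirmatory concentration-response retest of ultra-high-throughput screening hits for modulation of myocardial damage; cell death induced by hydrogen peroxide oxidative stress; compound pretreatment for 60 min then peroxide exposure for 2 h; potency is for protecting the cells against peroxide damage rather than for killing them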
[18] = target: Peroxisome proliferator-activated receptor gamma/Nuclear receptor coactivator 2 (Homo sapiens, UniProt P37231); assay type: functional;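 also: agonist potency for raising coactivator recruitment to the receptor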
Peroxisome proliferator-activated receptor gamma/Nuclear receptor coactivator 2, sequence (P37231 whole entry): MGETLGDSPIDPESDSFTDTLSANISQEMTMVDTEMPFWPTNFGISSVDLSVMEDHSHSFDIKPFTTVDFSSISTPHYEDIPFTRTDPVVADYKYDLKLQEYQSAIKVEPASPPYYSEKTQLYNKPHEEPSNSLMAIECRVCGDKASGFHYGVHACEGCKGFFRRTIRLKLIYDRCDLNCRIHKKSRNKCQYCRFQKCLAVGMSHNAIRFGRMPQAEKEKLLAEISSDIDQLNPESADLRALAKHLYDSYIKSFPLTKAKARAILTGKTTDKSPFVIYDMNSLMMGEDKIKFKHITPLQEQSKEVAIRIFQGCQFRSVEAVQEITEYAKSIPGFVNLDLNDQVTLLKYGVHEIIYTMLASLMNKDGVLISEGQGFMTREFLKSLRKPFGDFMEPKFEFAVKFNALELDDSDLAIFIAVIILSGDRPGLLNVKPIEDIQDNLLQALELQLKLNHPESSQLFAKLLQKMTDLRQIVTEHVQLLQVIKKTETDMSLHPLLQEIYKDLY
Peroxisome proliferator-activated receptor gamma/Nuclear receptor coactivator 2, sequence (Q15596 whole entry, further chain): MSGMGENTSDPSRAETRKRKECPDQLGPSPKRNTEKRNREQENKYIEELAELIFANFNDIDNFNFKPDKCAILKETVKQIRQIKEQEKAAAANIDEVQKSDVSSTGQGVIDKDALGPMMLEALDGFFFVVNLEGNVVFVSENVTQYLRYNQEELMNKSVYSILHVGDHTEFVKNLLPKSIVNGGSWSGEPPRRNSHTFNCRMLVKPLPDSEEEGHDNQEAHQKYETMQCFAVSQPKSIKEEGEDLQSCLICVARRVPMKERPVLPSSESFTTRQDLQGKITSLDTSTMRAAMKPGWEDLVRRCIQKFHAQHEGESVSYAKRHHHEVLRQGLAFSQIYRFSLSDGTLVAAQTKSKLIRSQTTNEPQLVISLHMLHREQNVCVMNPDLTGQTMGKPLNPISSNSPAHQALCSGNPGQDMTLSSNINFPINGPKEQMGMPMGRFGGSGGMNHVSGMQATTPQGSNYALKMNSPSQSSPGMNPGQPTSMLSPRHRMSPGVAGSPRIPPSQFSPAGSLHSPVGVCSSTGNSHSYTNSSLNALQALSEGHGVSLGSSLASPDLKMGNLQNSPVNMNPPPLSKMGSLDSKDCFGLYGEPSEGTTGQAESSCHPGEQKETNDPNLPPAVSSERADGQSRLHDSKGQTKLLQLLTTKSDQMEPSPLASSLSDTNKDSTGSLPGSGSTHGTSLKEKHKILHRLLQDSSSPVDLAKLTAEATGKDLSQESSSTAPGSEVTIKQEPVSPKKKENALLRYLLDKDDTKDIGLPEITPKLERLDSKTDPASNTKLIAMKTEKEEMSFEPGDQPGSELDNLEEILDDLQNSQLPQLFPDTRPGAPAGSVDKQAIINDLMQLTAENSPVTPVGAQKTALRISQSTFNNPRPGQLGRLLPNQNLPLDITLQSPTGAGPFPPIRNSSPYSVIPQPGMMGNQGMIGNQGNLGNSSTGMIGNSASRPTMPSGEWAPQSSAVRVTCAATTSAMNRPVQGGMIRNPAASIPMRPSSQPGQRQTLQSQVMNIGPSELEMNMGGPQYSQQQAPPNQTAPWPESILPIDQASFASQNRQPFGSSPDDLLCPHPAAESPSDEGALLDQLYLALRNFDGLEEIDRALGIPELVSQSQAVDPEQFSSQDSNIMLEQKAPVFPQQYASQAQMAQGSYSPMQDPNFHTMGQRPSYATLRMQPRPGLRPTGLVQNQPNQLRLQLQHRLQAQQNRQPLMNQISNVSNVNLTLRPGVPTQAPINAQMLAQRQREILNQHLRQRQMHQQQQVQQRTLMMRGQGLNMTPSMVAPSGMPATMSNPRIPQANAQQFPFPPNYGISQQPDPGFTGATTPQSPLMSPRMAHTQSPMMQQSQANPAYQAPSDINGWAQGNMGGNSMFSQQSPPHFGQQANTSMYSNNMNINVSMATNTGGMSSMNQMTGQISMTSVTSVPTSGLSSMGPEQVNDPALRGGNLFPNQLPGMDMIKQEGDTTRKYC

[19] = target: Peroxisome proliferator-activated receptor gamma/Nuclear receptor coactivator 1 (Homo sapiens, UniProt P37231); assay type: functional;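 also: agonist potency as compounds enhance coactivator SRC-1 recruitment to PPARgamma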
[20] = target: Peroxisome proliferator-activated receptor gamma/Nuclear receptor coactivator 3 (Homo sapiens, UniProt P37231); assay type: functional;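 also: agonist potency for raising coactivator recruitment to the receptor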
[21] = viability loss in HeLa cells – cytotoxicity control for MgcRacGAP inhibitor project, dose response (AID 624300); assay type: functional
[22] = target: T6, Rac GTPase-activating protein 1 (Homo sapiens, UniProt Q9H0H5); assay: blockers of MgcRacGAP-driven Rac1 GTP hydrolysis – biochemical, ADP Hunter fluorescence, primary and confirmatory, confirmation (AID 624330); assay type: functional
T6 sequence (Q9H0H5 whole entry): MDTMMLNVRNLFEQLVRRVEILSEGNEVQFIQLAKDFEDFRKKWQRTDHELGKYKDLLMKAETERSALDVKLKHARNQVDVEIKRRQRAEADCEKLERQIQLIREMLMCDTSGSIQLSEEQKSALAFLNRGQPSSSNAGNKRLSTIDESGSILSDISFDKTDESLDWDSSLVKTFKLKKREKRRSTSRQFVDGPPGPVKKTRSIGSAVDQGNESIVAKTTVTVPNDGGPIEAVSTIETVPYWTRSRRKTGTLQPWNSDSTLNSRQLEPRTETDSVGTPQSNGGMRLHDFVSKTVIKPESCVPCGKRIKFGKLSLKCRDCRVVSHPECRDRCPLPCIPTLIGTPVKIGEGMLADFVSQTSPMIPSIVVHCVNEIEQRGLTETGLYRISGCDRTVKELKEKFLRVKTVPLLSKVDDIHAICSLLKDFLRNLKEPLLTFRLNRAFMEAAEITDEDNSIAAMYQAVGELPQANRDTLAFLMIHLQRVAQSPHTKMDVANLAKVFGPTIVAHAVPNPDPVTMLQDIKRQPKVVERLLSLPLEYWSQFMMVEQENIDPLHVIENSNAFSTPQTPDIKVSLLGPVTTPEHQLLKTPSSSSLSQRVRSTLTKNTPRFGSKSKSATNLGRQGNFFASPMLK

[23] = target: T4, Cytochrome P450 3A4; remark: listed apart in the source

Cc1c(Cl)cccc1NC(=O)CSCc1cc(=O)[nH][nH]1
IC50 [1]: 62.3 µM (active) | AC50 [2]: > 380 µM (inactive) | EC50 [3]: > 380 µM (inconclusive)

C=CCn1cccc(C(=O)Nc2ccc(Cl)cc2)c1=O
AC50 [4]: 99.8 µM (active)

CC(C)c1nnc(NC(=O)c2c(O)c3cccc4c3n(c2=O)CCC4)s1
CC50 [5]: 8.21 µM (active) | CC50 [6]: 17.1 µM (active) | IC50 [7]: 7.34 µM (active)

CCC(C)NC(=O)C1CCN(C(=O)c2ccccc2)CC1 (stereo not drawn)
AC50 [8]: inconclusive

O=C(COc1ccc(Cl)cc1)Nc1ccc(N2CCN(C(=O)c3ccco3)CC2)cc1
AC50 [9]: 1.12 µM (inconclusive) | AC50 [8]: inconclusive

C[C@]12CC[C@H]3c4ccc(O)cc4CC[C@@H]3[C@H]1CC[C@@H]2OC(=O)CCC1CCCC1
AC50 [10]: 6.31 µM (inconclusive) | AC50 [8]: inconclusive

CC(C)Nc1cc(C(C)(C)C)nc2c(-c3ccccc3)cnn12
EC50 [11]: 6.01 µM (active) | EC50 [12]: 13.6 µM (active) | EC50 [13]: 15.9 µM (active) | AC50 [4]: 58.2 µM (active)

O=C1N=C(N2CCC(Cc3ccccc3)CC2)S/C1=C/c1c[nH]nc1-c1ccccc1
AC50 [8]: inconclusive

O=C1C(C2=NC(C(=O)O)C3C(=O)N(c4ccc(Cl)cc4)C(=O)C23)=C(O)c2ccccc21 (stereo not drawn)
IC50 [1]: 71.6 µM (active)

Cc1ccc(C(=O)CSc2nnc[nH]2)cc1
IC50 [1]: 50.5 µM (active)

CC(C)(C)c1ccc(C(=O)N2CCCC2)s1
CC50 [6]: > 20 µM (active)

O=C(NCCC1=CCCCC1)NC12CC3CC(CC(C3)C1)C2
EC50 [14]: 6.24 µM (active) | CC50 [15]: > 40 µM (active) | AC50 [4]: 215 µM (active)

CCOC(=O)c1ccc(N2N=C(C)/C(=C/C=C/c3ccco3)C2=O)cc1
IC50 [16]: > 100 µM (active)

COc1c(O)cccc1/C=N/NC(=O)Cn1ccnc1C
IC50 [16]: 20.4 µM (active) | IC50 [17]: > 79 µM (inactive)

CN(C)c1ccc(/N=C/C=C2\N(C)c3ccccc3C2(C)C)cc1
EC50 [18]: > 79.4 µM (not active) | EC50 [19]: > 79.4 µM (not active) | EC50 [20]: > 79.4 µM (not active) | IC50 [16]: 13.8 µM (active) | CC50 [21]: 100 µM (active) | IC50 [22]: 12.2 µM (active) | AC50 [23]: 15.8 µM (inconclusive)
